Publication PMC10073729, “Synthesis, radiolabeling, and evaluation of 68Ga-labeled aminoquinoxaline derivative as a potent PFKFB3-targeted PET tracer” (Frontiers in Chemistry, 2023)
Read-outs that look alike come from different tables or passages of the source.

Key:
PFKFB3 = settings: 2019, cited from earlier work
[1] = biological target: T1, Human Recombinant PFKFB3 Protein (His and GST Tag) (Homo sapiens, UniProt Q16875); test: ADP-Glo-based PFKFB3 enzymatic activity inhibition assay; assay type: biochemical; settings: triplicate
T1 construct: His; GST; purchased SinoBiological
Text: All regents used in this section were purchased from Sigma, and the Human Recombinant PFKFB3 Protein (His and GST Tag) was purchased from SinoBiological. The ADP-Glo™ Kinase Assay kit was also obtained from Promega.
The PFKFB3 enzymatic activity assay followed an identical procedure used in previously published literature, along with the same regents and materials ([Boutard et al., 2019]).

[2] = system: F2,6BP production in HCT116 cells; test: Cellular inhibition assay: F2,6BP production in glucose-starved, restimulated HCT116 cells; assay type: cell-based; settings: Homo sapiens, HCT-116, 25 mM glucose restimulation 4 h, triplicate
Protocol: For the cellular inhibition assay, the protocol used in this section was also from the same literature as the PFKFB3 enzymatic activity assay, with minor modifications ([Boutard et al., 2019]). Briefly, glucose-starved HTC116 cells were pretreated with diluted compounds at different concentrations and restimulated with 25 mM glucose for 4 h to trigger glycolytic flux. Cells were then lysed by NaOH ([…]) under 85°C for 10 min and transferred to a HEPES solution (20 mM) neutralized by acetic acid (1 M) to pH 7.5–8.0. The lysates (equal amounts, normalized to protein level) were reacted in a mixture of α-glycerophosphate dehydrogenase (0.17 U), aldolase (0.083 U), pyrophosphate-dependent fructose-6-phosphate kinase from potato (0.17 U) and triosephosphate isomerase (0.83 U) in Tris (pH 8.0), glucose-6-phosphate (17 mM), fructose-6-phosphate (2.5 mM) and magnesium chloride (5.5 mM) in a total volume of 100 µL. The reaction was induced by the addition of NADH (0.14 mM) under 30°C, and the absorbance at 340 nm was measured 30 min post addition. All absorbances for reaction mixtures for test compounds with different concentrations were recorded and used for IC50 calculations in GraphPad Prism 5.0 software.

[3] = representative PFKFB3 inhibitors, Figure 1, ref Boyd et al., 2015, Boutard et al., Wang et al., 2020, read-out: IC50 (PFKBF3)

T1 sequence (Q16875 whole entry): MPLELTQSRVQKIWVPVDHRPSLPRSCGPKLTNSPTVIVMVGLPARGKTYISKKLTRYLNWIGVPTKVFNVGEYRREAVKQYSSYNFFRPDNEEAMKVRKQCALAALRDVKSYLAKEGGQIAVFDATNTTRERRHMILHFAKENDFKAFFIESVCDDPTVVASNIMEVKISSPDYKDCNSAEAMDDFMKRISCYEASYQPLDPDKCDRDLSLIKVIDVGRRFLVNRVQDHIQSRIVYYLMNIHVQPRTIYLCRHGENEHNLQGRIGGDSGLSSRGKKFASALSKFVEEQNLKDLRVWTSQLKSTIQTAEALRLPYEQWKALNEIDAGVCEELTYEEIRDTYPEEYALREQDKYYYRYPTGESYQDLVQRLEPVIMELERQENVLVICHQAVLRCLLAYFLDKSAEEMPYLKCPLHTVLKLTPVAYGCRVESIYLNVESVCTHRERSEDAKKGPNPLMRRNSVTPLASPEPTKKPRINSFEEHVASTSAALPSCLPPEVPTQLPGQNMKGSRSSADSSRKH

IC50 [1] [nM] | IC50 [2] [nM] | Structure (SMILES) | IC50 (PFKFB3; [3]) [nM] | IC50 (PFKFB3; ref Boutard et al., read-out: IC50 enzymatic PFKFB3 inhibition (reported)) [nM]
 |  | CC(C)OC(=O)c1cccc(-c2cc(S(=O)(=O)Nc3ccc(C(=O)O)c(O)c3)sc2Cl)c1 [compound 1] | 150 | 
 |  | Cc1c(S(=O)(=O)Nc2cccc(-c3nnn[nH]3)c2)oc2ccc(C(C)C)cc12 [compound 2] | 80 | 
 |  | Cc1noc(C)c1Cn1nc(C#N)c2cc(Oc3ccc(NC(=O)[C@@H]4CCCN4)cc3)ccc21 [compound 3] | 3 | 
6.7 ± 2.3 | 2300 ± 800 | CN1CCCC(NC(=O)c2cncc(Nc3cc(-c4ccc5ccn(C)c5c4)c4nccnc4c3)c2)C1 (centres unmarked) [compound 4] |  | 2
12.5 ± 4.5 | 5300 ± 1400 | Cn1ccc2ccc(-c3cc(Nc4cncc(C(=O)NC5CCCN(C(=O)CCC(C(=O)O)N6CCN(CC(=O)O)CCN(CC(=O)O)CCN(CC(=O)O)CC6)C5)c4)cc4nccnc34)cc21 (centres unmarked) [compound 5, 2,2′,2′′-(10-(1-carboxy-4-(3-(5-((8-(1-methyl-1H-indol-6-yl)quinoxalin-6-yl)amino)nicotinamido)piperidin-1-yl)-4-oxobutyl)-1,4,7,10-tetraazacyclododecane-1,4,7-triyl) triacetic acid] |  | 
